# Biological target: Gamma-secretase
# Assay: Inhibition of human gamma secretase assessed as reduction in Abeta42 production
# Type: protein-complex assay
row,Structure (SMILES),IC50
1,Cc1cc(N2C[C@H]3CC[C@@H](C2)[C@@H]3Nc2nc3n(n2)CCC[C@H]3Oc2cc(F)cc(Cl)c2)ncn1,8.1 nM
2,Cc1cc(N2C[C@H]3CC[C@@H](C2)[C@@H]3Nc2nc3n(n2)CCC[C@H]3Oc2cccc(Cl)c2)ncn1,9.9 nM
3,COc1cc(N2C[C@H]3CC[C@@H](C2)[C@@H]3Nc2nc3n(n2)CC[C@H]3Oc2cc(F)cc(Cl)c2)cnn1,8.1 nM
4,Cc1cc(N2C[C@H]3CC[C@@H](C2)[C@@H]3Nc2nc3n(n2)CCC[C@H]3Oc2ccc(Cl)cc2)ncn1,10.3 nM
5,COc1cc(N2C[C@H]3CC[C@@H](C2)[C@@H]3Nc2nc3n(n2)CCC[C@H]3Oc2cc(F)cc(Cl)c2)cnn1,6.3 nM
6,Cc1cc(N2C[C@H]3CC[C@@H](C2)[C@@H]3Nc2nc3n(n2)CCC[C@H]3Oc2cc(Cl)cc(Cl)c2)ncn1,6.6 nM
